Measurements from paper PMC10208956, “Microbial peptides activate tumour-infiltrating lymphocytes in glioblastoma” (Nature, 2023).

Assays:
Type in all cases: cell-based, human
[1] = system: sorted CD4+ PE and FITC TCRVβ+ TILs; test: Proliferation of TCRBV-sorted CD4+ TILs (without TCRBV6.1 and TCRBV6.2); conditions: sheet 6b
From the text: TILs expressing specific TCRBVs were isolated from bulk TILs using a panel of 22 fluorescently labelled TCRBV antibodies that detect 27 different TCRBVs. Twelve TCRBV antibodies were labelled with PE and 10 with FITC (Beckman Coulter). […] After another wash, cells were stained with CD4 (1:100) (APC anti-human CD4, eBioscience), CD8 (1:100) (Pacific blue anti-human CD8, BioLegend), TCRBV-PE (1:25) (Beckman Coulter) and TCRBV-FITC (1:25) (Beckman Coulter) antibodies (Supplementary Table 12) for 30 min. Finally, cells were sorted, seeded at 5 × 10^4 cells per well in T cell medium without h-IL-2 and rested for 1 day before stimulation with 2 × 10^5 cells per well of irradiated autologous PBMCs (45 Gy) and peptide (10 µM).
Two populations of CD4^+ PE-TCRVβ^+ and CD4^+ FITC-TCRVβ^+ were sorted and later mixed together. […] Specific amount of each cytokine/chemokine (pg/ml) was calculated by subtracting the cytokines in the negative control cultures (no peptide control). Source data

TCC88 = test: Cytokine and chemokine secretion of TCC88 after peptide stimulation; conditions: TCC88 supernatant after peptide stimulation; no peptide control subtracted; Fig. 3e
From the text: Fig. 3 Bacteria-derived and microbiota-derived peptides can stimulate TCC88 as well as the tumour antigen. a, Peptides with the highest predicted stimulatory scores were identified by searching various databases (see Methods). Numbers of unique 10-mer peptides within each database, synthesized peptides, TCC88 stimulatory peptides and the corresponding percentage of stimulatory peptides within each database are shown. […] Cytokine and chemokine secretion of TCC88 was examined and compared upon stimulation with these three different antigens. A specific amount of each cytokine and chemokine (pg ml^−1) was calculated by subtracting the cytokines in the negative control cultures (no peptide control). f, Cytotoxicity of TCC88 against the autologous tumour cell line after stimulation with 2 µM of SIN3A* and HGM3 (data represent the mean percentage of two replicate wells). E:T, effector to target. g, TCC88 was tested with HGM3 (10 µM) or SIN3A* (10 µM) peptides or both together (each 10 µM), and ^3H-thymidine incorporation was measured after 3 days (data represent the mean SI value of three replicate wells ± s.e.m.). Also see Extended Data Figs. 3 and 4. Source data
(§1) Supernatants from each experiment were harvested a day before adding thymidine and frozen at −20 °C. Cytokines were measured using ELISA for human IFNγ ELISA MAX (BioLegend), human GM-CSF DuoSet ELISA (R&D Systems) and bead-based assays. A Synergy H1 hybrid multi-mode reader (Agilent) was used to measure the absorbance. The LEGENDplex Multi-analyte Flow Assay kit (BioLegend) is a 13-plex human TH cytokine panel, which includes IFNγ, TNF, IL-2, IL-4, IL-5, IL-6, IL-9, IL-10, IL-13, IL-17A, IL-17F, IL-21 and IL-22. […] LSR Fortessa Flow Cytometer (BD Biosciences) was used to measure cytokines, and data were analysed using FlowJo (Tree Star). The Human XL Cytokine Luminex Performance Assay Fixed Panel (R&D Systems) contains 45 analytes covering a broad range of various chemokines and cytokines.

[2] = system: bulk TILs (patient 1635WI); test: Cytokine and chemokine secretion of bulk TILs stimulated with IPdBPs; design: key to CD40 Ligand / Flt-3 Ligand / GM-CSF / Granzyme B / IFN-α / IFN-γ / IL-1rα / IL-1α / IL-1β / IL-2 / IL-3 / IL-4 / IL-5 / IL-6 / IL-7 / IL-10 / IL-12p70 / IL-13 / IL-15 / IL-17A / IL-33 / TNF-α / RANTES: pg/mL, negative-control amount subtracted; CXCL2/GROβ / CXCL10/IP-10 / CCL2/MCP-1 / CCL3/MIP-1α / CCL4/MIP-1β: unit not given beside the values; conditions: secretion by bulk TILs after peptide stimulation; sheet 1e
From the text: Fig. 1 Elution of HLA class II-presented bacterial peptides from 19 glioblastomas and the stimulatory effect of IPdBPs on bulk TILs. a, Schematic of the immunopeptidome analyses of glioblastoma tissue, from which eluted peptides were annotated using the UniProt bacteria database (1). TILs or peripheral memory T cells were stimulated with IPdBPs (2 and 3). LC–MS, liquid chromatography–mass spectrometry; PBMC, peripheral blood mononuclear cell. The images in panel a were created using BioRender (https://biorender.com). b, Number of unique IPdBPs in patients with glioblastoma (n = 19) (data from patient 1635WI contains both primary and recurrent tumours together), with 344 unique IPdBPs identified (left). These peptides originated from 255 and 199 unique proteins and bacteria, respectively (3 technical replicates). […] As a control, peptidome data were also annotated using human protein database to identify eluted self-peptides. As shown, most of HLA class II-bound peptides are self-(human) peptides. IPdBPs of primary (bottom left, n = 18) and recurrent (bottom right, n = 23) tumours were separately annotated to their source bacteria at the phylum level. d, Bulk TILs (patient 1635WI) were stimulated with IPdBPs (See Supplementary Table 8), each in five replicate wells, and proliferation was measured after 5 days via ^3H-thymidine incorporation. […] The data are expressed as the mean value of all wells ± s.e.m. SIN3A* peptide was used as a positive control as TILs recognize this tumour antigen. T cells with APCs without any stimuli were used as a negative control. e, Heatmap of cytokine and chemokine secretion of TILs stimulated with three IPdBPs, which weakly stimulated proliferation. The secretion of each cytokine and chemokine was calculated by subtracting the corresponding cytokine and chemokine amount (pg ml^−1) of the negative control. TILs with APCs without any stimuli were used as a negative control. Also see Extended Data Fig. 1. Source data
as §1

For “LLDFNHSMVN [HGM26, human gut microbiota peptide]”, the “Proliferation (SI) of sorted CD4+ TILs” value ([1]; replicate 1) was 1.889, the “Proliferation (SI) of sorted CD4+ TILs” value ([1]; replicate 2) was 1.31 and the “Proliferation (SI) of sorted CD4+ TILs” value ([1]; replicate 3) was 1.491.
With “LIVFNHNCLK [HB84, UniProt bacteria database peptide]” the CCL20/MIP-3α (TCC88) was 8.75 pg/mL, the “CD40 Ligand” value (TCC88) was 1473.06 pg/mL and the CXCL1/GROα (TCC88) was 73.57 pg/mL. It also gave a CXCL2/GROβ (TCC88) of 49.19 pg/mL, a CXCL8/IL-8 (TCC88) of 0 pg/mL and a CXCL10/IP-10 (TCC88) of 104.46 pg/mL. The “Flt-3 Ligand” value (TCC88) was 100.29 pg/mL, the Fractalkine (TCC88) was 347.74 pg/mL and the GM-CSF (TCC88) was 5082.78 pg/mL. The “Granzyme B” value (TCC88) was 2479.01 pg/mL, the IFN-α (TCC88) was 2.75 pg/mL and the IFN-γ (TCC88) was 910.88 pg/mL. For the same sequence, the IL-1rα (TCC88) was 520.19 pg/mL, the IL-1α (TCC88) was 12.29 pg/mL and the IL-1β (TCC88) was 17.01 pg/mL. It also gave an IL-2 (TCC88) of 167.02 pg/mL, an IL-3 (TCC88) of 131.91 pg/mL and an IL-4 (TCC88) of 71.31 pg/mL. For the same sequence, the IL-5 (TCC88) was 29.89 pg/mL, the IL-6 (TCC88) was 102.19 pg/mL and the IL-7 (TCC88) was 0.74 pg/mL. For the same sequence, the IL-10 (TCC88) was 2358.6 pg/mL, the IL-12p70 (TCC88) was 19.71 pg/mL and the IL-13 (TCC88) was 1338.92 pg/mL. It also gave an IL-15 (TCC88) of 2.33 pg/mL, an IL-17A (TCC88) of 1.97 pg/mL and an IL-17E/IL-25 (TCC88) of 0 pg/mL. It also gave an IL-33 (TCC88) of 15.02 pg/mL and a TNF-α (TCC88) of 3267.52 pg/mL.
For VFAIDRAGLVGEDGPT [Peptidome.Bac 5], the CCL2/MCP-1 [2] was 40.48, the CCL3/MIP-1α [2] was 7.07 and the CCL4/MIP-1β [2] was 0. For the same sequence, the CCL11/Eotaxin [2] was 0, the CCL19/MIP-3β [2] was 0 and the CCL20/MIP-3α [2] was 0. The “CD40 Ligand” value [2] was 0, the CXCL1/GROα [2] was 0 and the CXCL2/GROβ [2] was 5.86. For the same sequence, the CXCL8/IL-8 [2] was 0, the CXCL10/IP-10 [2] was 62.72 and the “Flt-3 Ligand” value [2] was 1.13. For the same sequence, the GM-CSF [2] was 16.51, the “Granzyme B” value [2] was 0 and the IFN-α [2] was 0. It also gave an IFN-γ [2] of 0, an IL-1rα [2] of 212.62 and an IL-1α [2] of 0. The IL-1β [2] was 0, the IL-2 [2] was 0 and the IL-3 [2] was 0. The IL-4 [2] was 0, the IL-5 [2] was 0 and the IL-6 [2] was 8.61. For the same sequence, the IL-7 [2] was 0.34, the IL-10 [2] was 0 and the IL-12p70 [2] was 0. For the same sequence, the IL-13 [2] was 16.57, the IL-15 [2] was 0 and the IL-17A [2] was 0. For the same sequence, the IL-17E/IL-25 [2] was 0, the IL-33 [2] was 0 and the RANTES [2] was 0. For the same sequence, the TNF-α [2] was 24.29.
For QALVTLEENAVIG [Peptidome.Bac 14], the CCL2/MCP-1 [2] was 351.37, the CCL3/MIP-1α [2] was 23.58 and the CCL4/MIP-1β [2] was 78.06. The CCL11/Eotaxin [2] was 0, the CCL19/MIP-3β [2] was 2.57 and the CCL20/MIP-3α [2] was 4.22. For the same sequence, the “CD40 Ligand” value [2] was 666.28, the CXCL1/GROα [2] was 68.11 and the CXCL2/GROβ [2] was 60.34. For the same sequence, the CXCL8/IL-8 [2] was 917.52, the CXCL10/IP-10 [2] was 111.72 and the “Flt-3 Ligand” value [2] was 48.51. The GM-CSF [2] was 38.36, the “Granzyme B” value [2] was 0 and the IFN-α [2] was 0. For the same sequence, the IFN-γ [2] was 8.17, the IL-1rα [2] was 700.66 and the IL-1α [2] was 0. It also gave an IL-1β [2] of 0, an IL-2 [2] of 2.34 and an IL-3 [2] of 0.97. It also gave an IL-4 [2] of 0, an IL-5 [2] of 0 and an IL-6 [2] of 110.14. It also gave an IL-7 [2] of 0.64, an IL-10 [2] of 11.57 and an IL-12p70 [2] of 0. For the same sequence, the IL-13 [2] was 23.19, the IL-15 [2] was 0.56 and the IL-17A [2] was 0. For the same sequence, the IL-17E/IL-25 [2] was 0, the IL-33 [2] was 4.57 and the RANTES [2] was 0. For the same sequence, the TNF-α [2] was 26.86.
Work on AGPVVAAAVILKEDC [Peptidome.Bac 7] yielded a CCL2/MCP-1 [2] of 11.43, a CCL3/MIP-1α [2] of 1 and a CCL4/MIP-1β [2] of 0. For the same sequence, the CCL11/Eotaxin [2] was 0, the CCL19/MIP-3β [2] was 2.91 and the CCL20/MIP-3α [2] was 3.7. For the same sequence, the “CD40 Ligand” value [2] was 994.39, the CXCL1/GROα [2] was 4.06 and the CXCL2/GROβ [2] was 18.18. The CXCL8/IL-8 [2] was 0, the CXCL10/IP-10 [2] was 68.01 and the “Flt-3 Ligand” value [2] was 8.98. The GM-CSF [2] was 20.54, the “Granzyme B” value [2] was 0 and the IFN-α [2] was 0. For the same sequence, the IFN-γ [2] was 18.67, the IL-1rα [2] was 382.82 and the IL-1α [2] was 0. It also gave an IL-1β [2] of 0, an IL-2 [2] of 0 and an IL-3 [2] of 10.62. For the same sequence, the IL-4 [2] was 0, the IL-5 [2] was 0 and the IL-6 [2] was 16.87. For the same sequence, the IL-7 [2] was 1.18, the IL-10 [2] was 11.57 and the IL-12p70 [2] was 2.8. It also gave an IL-13 [2] of 7.47, an IL-15 [2] of 0.56 and an IL-17A [2] of 0. For the same sequence, the IL-17E/IL-25 [2] was 0, the IL-33 [2] was 0 and the RANTES [2] was 0. It also gave a TNF-α [2] of 9.2.
